The values below come from ChEMBL document CHEMBL1144655, “Potent and selective isophthalamide S2 hydroxyethylamine inhibitors of BACE1” (Bioorg Med Chem Lett, 2007).

For one test, the target named is Cathepsin D (Homo sapiens, UniProt P07339). Briefly: Inhibition of cathepsin D.
The target of another test is Beta-secretase 1 (Homo sapiens, UniProt P56817). Briefly: Inhibition of BACE1.

For orientation: IC50 means the concentration needed to halve the response being measured. A higher IC50 goes with a need for much substance.

Sequence of Beta-secretase 1 (P56817 whole entry): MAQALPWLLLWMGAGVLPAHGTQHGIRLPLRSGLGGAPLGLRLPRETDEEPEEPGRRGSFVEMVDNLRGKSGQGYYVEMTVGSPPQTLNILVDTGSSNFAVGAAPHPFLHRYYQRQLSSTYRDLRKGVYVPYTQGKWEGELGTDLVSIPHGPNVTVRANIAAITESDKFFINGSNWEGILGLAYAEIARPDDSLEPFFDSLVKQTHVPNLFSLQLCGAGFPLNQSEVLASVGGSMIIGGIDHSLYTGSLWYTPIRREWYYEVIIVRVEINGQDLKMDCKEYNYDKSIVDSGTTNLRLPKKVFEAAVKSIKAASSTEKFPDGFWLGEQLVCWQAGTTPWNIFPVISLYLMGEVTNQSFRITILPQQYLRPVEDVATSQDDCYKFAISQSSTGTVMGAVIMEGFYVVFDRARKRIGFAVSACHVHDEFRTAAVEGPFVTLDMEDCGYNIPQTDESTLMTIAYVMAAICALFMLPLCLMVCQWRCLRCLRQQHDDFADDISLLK
Sequence of Cathepsin D (P07339 65-162 limits assumed): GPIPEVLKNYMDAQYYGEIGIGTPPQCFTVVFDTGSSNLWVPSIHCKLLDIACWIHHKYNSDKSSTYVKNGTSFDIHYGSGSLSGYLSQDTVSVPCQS
Sequence of Cathepsin D (P07339 169-412 limits assumed): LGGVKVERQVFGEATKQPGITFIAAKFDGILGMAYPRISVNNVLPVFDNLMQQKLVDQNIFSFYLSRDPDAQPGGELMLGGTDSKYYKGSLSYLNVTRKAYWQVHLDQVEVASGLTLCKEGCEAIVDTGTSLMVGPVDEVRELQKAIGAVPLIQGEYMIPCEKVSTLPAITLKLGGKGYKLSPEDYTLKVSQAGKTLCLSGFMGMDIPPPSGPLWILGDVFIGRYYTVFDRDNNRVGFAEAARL

For `CCCN(CCC)C(=O)c1cc(C(N)=O)cc(C(=O)N[C@@H](Cc2ccc(O)cc2)[C@H](O)CNCc2cccc(OC)c2)c1`, the half-inhibitory concentration (IC50) against Cathepsin D is > 20000 nM; on Beta-secretase 1 it was 300 nM.

As for `CCCN(CCC)C(=O)c1cc(C(N)=O)cc(C(=O)N[C@@H](Cc2ccccc2)[C@H](O)CNCc2cccc(OC)c2)c1`, the IC50 on Cathepsin D was 2800 nM; at Beta-secretase 1, 100 nM.

Take `CCCN(CCC)C(=O)c1cc(C#N)cc(C(=O)N[C@@H](Cc2ccccc2)[C@H](O)CNCc2cccc(OC)c2)c1`: the values for the 50% inhibitory concentration (IC50) on Cathepsin D and on Beta-secretase 1 were 660 nM and 90 nM, respectively.

With `CCCN(CCC)C(=O)c1cc(C(=O)N[C@@H](Cc2ccccc2)[C@H](O)CNCc2cccc(OC)c2)cc(C(=O)OCC)c1`, the IC50 against Cathepsin D stood at 866 nM; at Beta-secretase 1, 132 nM.

For the molecule `CCCN(CCC)C(=O)c1cc(C(=O)N[C@@H](Cc2ccccc2)[C@H](O)CNCc2cccc(OC)c2)cc(C(=O)N(CCC)CCC)c1`, the IC50 against Cathepsin D is 3600 nM; against Beta-secretase 1 it was 250 nM.

`CCCN(CCC)C(=O)c1cc(C(N)=O)cc(C(=O)N[C@@H](Cc2cc(F)cc(F)c2)[C@H](O)CNCc2cccc(OC)c2)c1` returned a half-inhibitory concentration (IC50) at Cathepsin D of 2400 nM.

On to `CCCN(CCC)C(=O)c1cc(C(=O)O)cc(C(=O)N[C@@H](Cc2ccccc2)[C@H](O)CNCc2cccc(OC)c2)c1`, for which the IC50 against Cathepsin D is 3600 nM; against Beta-secretase 1 it was 30 nM.

Regarding `CCCN(CCC)C(=O)c1cc(C(=O)N[C@@H](Cc2ccccc2)[C@H](O)CNCc2cccc(OC)c2)cc(C(=O)N(C)C)c1`, the half-inhibitory concentration (IC50) at Cathepsin D is 3800 nM; against Beta-secretase 1, 70 nM.

Turning to `CCCNC(=O)c1cc(C#N)cc(C(=O)N[C@@H](Cc2ccccc2)[C@H](O)CNCc2cccc(OC)c2)c1`, the IC50 against Cathepsin D is > 20000 nM; against Beta-secretase 1, 770 nM.

As for `CCCN(CCC)C(=O)c1cc(C(N)=O)cc(C(=O)N[C@@H](Cc2cc(F)cc(F)c2)[C@H](O)CNCc2cccc(CC)c2)c1`, the IC50 at Cathepsin D was 1600 nM; against Beta-secretase 1, 5 nM.

In the case of `CCCN(CCC)C(=O)c1cc(C)cc(C(=O)N[C@@H](Cc2ccccc2)[C@H](O)CNCc2cccc(OC)c2)c1`, the values for the 50% inhibitory concentration (IC50) on Cathepsin D and against Beta-secretase 1 were 450 nM and 100 nM, respectively.

Turning to `CCCNC(=O)c1cc(C(N)=O)cc(C(=O)N[C@@H](Cc2ccccc2)[C@H](O)CNCc2cccc(OC)c2)c1`, the concentration for half-maximal inhibition (IC50) is > 20000 nM against Cathepsin D and 1900 nM at Beta-secretase 1.

As for `CCCN(CCC)C(=O)c1cc(C)cc(C(=O)N[C@@H](Cc2cc(F)cc(F)c2)[C@H](O)CNCc2cccc(CC)c2)c1`, the results for the half-inhibitory concentration (IC50) at Cathepsin D and against Beta-secretase 1 were 150 nM and 2 nM, respectively.

For `CCCN(CCC)C(=O)c1cc(CC#N)cc(C(=O)N[C@@H](Cc2ccccc2)[C@H](O)CNCc2cccc(OC)c2)c1`, the half-inhibitory concentration (IC50) on Cathepsin D came out at 570 nM; at Beta-secretase 1, 360 nM.
